Data as given in PubChem BioAssay AID1963980 (Molecular Pharmacology Branch, DTP, NCI, 2024).

System: 475296-252-R-J1-PDC spheroid viability
Assay: Anticancer human tumor 475296-252-R-J1-PDC patient-derived rectal carcinoma cell line growth inhibition [PI3K]
Conditions: spheroids with HUVEC and MSC; for viability, T/C: stronger effect = lower value; active = viability on the fitted dose curve at most 10% of control; inactive = the rest
How it was run: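 Tumor cells were combined with HUVEC and MSCs into spheroids, then dosed with PI3K-inhibitor combinations over half-log ranges capped near clinical Cmax or 10 microM.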

[1] = curve of first compound, second compound 0.00316 µM
[2] = curve of first compound, second compound 0.01 µM
[3] = curve of first compound, second compound 0.0316 µM
[4] = curve of first compound, second compound 0.1 µM
[5] = curve of first compound, second compound 0.316 µM
[6] = curve of first compound, second compound 1 µM
[7] = second compound 0.00316 µM, first compound 0.0316 µM
[8] = second compound 0.00316 µM, first compound 0.1 µM
[9] = second compound 0.00316 µM, first compound 0.316 µM
[10] = second compound 0.00316 µM, first compound 1 µM
[11] = second compound 0.00316 µM, first compound 3.16 µM
[12] = second compound 0.00316 µM, first compound 10 µM
[13] = second compound 0.01 µM, first compound 0.0316 µM
[14] = second compound 0.01 µM, first compound 0.1 µM
[15] = second compound 0.01 µM, first compound 0.316 µM
[16] = second compound 0.01 µM, first compound 1 µM
[17] = second compound 0.01 µM, first compound 3.16 µM
[18] = second compound 0.01 µM, first compound 10 µM
[19] = second compound 0.0316 µM, first compound 0.0316 µM
[20] = second compound 0.0316 µM, first compound 0.1 µM
[21] = second compound 0.0316 µM, first compound 0.316 µM
[22] = second compound 0.0316 µM, first compound 1 µM
[23] = second compound 0.0316 µM, first compound 3.16 µM
[24] = second compound 0.0316 µM, first compound 10 µM
[25] = second compound 0.1 µM, first compound 0.0316 µM
[26] = second compound 0.1 µM, first compound 0.1 µM
[27] = second compound 0.1 µM, first compound 0.316 µM
[28] = second compound 0.1 µM, first compound 1 µM
[29] = second compound 0.1 µM, first compound 3.16 µM
[30] = second compound 0.1 µM, first compound 10 µM
[31] = second compound 0.316 µM, first compound 0.0316 µM
[32] = second compound 0.316 µM, first compound 0.1 µM
[33] = second compound 0.316 µM, first compound 0.316 µM
[34] = second compound 0.316 µM, first compound 1 µM
[35] = second compound 0.316 µM, first compound 3.16 µM
[36] = second compound 0.316 µM, first compound 10 µM
[37] = second compound 1 µM, first compound 0.0316 µM
[38] = second compound 1 µM, first compound 0.1 µM
[39] = second compound 1 µM, first compound 0.316 µM
[40] = second compound 1 µM, first compound 1 µM
[41] = second compound 1 µM, first compound 3.16 µM
[42] = second compound 1 µM, first compound 10 µM
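Also: spheroids exposed to agents for seven days before readout.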

C[C@@H](NC(=O)c1ncnc(N)c1Cl)c1ncc(C(=O)Nc2cc(C(F)(F)F)c(Cl)cn2)s1
> 10 µM: IC50 (curve of compound)
inactive: viability, T/C (compound 0.0316 µM) 89.7% [middle of 4 runs] | viability, T/C (compound 0.1 µM) 99.8% [middle of 4 runs] | viability, T/C (compound 0.316 µM) 95.5% [middle of 4 runs] | viability, T/C (compound 1 µM) 101% [middle of 4 runs] | viability, T/C (compound 3.16 µM) 103% [middle of 4 runs] | viability, T/C (compound 10 µM) 87.5% [middle of 4 runs]

Cn1nccc1Nc1nccc(-c2ccn(C(CO)c3ccc(Cl)c(F)c3)c(=O)c2)n1 (stereo unspecified) + CC(Nc1ccc2c(c1)OCCn1cc(N3C(=O)OCC3C(F)F)nc1-2)C(N)=O
inactive: viability, T/C [7] 92.9% | viability, T/C [8] 92.8% | viability, T/C [9] 99.3% | viability, T/C [10] 91.6% | viability, T/C [11] 90.3% | viability, T/C [12] 80.9% | viability, T/C [13] 96.8% | viability, T/C [14] 97.9% | viability, T/C [15] 94.4% | viability, T/C [16] 89.1% | viability, T/C [17] 92.1% | viability, T/C [18] 74% | viability, T/C [19] 101% | viability, T/C [20] 105% | viability, T/C [21] 95.7% | viability, T/C [22] 85.8% | viability, T/C [23] 82.9% | viability, T/C [24] 74.7% | viability, T/C [25] 87.6% | viability, T/C [26] 94.7% | viability, T/C [27] 76.8% | viability, T/C [28] 83.7% | viability, T/C [29] 73.3% | viability, T/C [30] 58.1% | viability, T/C [31] 81.1% | viability, T/C [32] 87.4% | viability, T/C [33] 83.1% | viability, T/C [34] 77.2% | viability, T/C [35] 61.1% | viability, T/C [36] 43.1% | viability, T/C [37] 84.1% | viability, T/C [38] 81% | viability, T/C [39] 87.1% | viability, T/C [40] 67.9% | viability, T/C [41] 53.3% | viability, T/C [42] 31.4%
6.42 µM: IC50 [5]
> 10 µM: IC50 [1] | IC50 [2] | IC50 [3] | IC50 [4]
3.52 µM: IC50 [6]

Cn1ncc(Cl)c1-c1cc(C(=O)NC(CN)Cc2cccc(F)c2)sc1Cl (stereo unspecified) + COc1c(OCCCN2CCOCC2)ccc2c3n(c(=NC(=O)c4cnc(N)nc4)nc12)CCN3
inactive: viability, T/C [7] 86.5% | viability, T/C [8] 70.6% | viability, T/C [9] 80.1% | viability, T/C [10] 67.9% | viability, T/C [11] 66.1% | viability, T/C [12] 55.7% | viability, T/C [13] 93.4% | viability, T/C [14] 91.5% | viability, T/C [15] 62.1% | viability, T/C [16] 58.5% | viability, T/C [17] 59.4% | viability, T/C [18] 59.2% | viability, T/C [19] 82.9% | viability, T/C [20] 89.4% | viability, T/C [21] 90.4% | viability, T/C [22] 59% | viability, T/C [23] 53% | viability, T/C [24] 36.9% | viability, T/C [25] 80% | viability, T/C [26] 79.4% | viability, T/C [27] 72.6% | viability, T/C [28] 56.4% | viability, T/C [29] 54.3% | viability, T/C [30] 27.1% | viability, T/C [31] 69.2% | viability, T/C [32] 69.4% | viability, T/C [33] 62.1% | viability, T/C [34] 54% | viability, T/C [35] 39.5% | viability, T/C [36] 22.5% | viability, T/C [37] 61.4% | viability, T/C [38] 53.8% | viability, T/C [39] 67.8% | viability, T/C [40] 42.4% | viability, T/C [41] 36.1% | viability, T/C [42] 16.4%
2.09 µM: IC50 [3]
0.888 µM: IC50 [6]
1.36 µM: IC50 [5]
> 10 µM: IC50 [1] | IC50 [2]
2.92 µM: IC50 [4]
